From PMC6973020, “Quinoline‐Conjugated Ruthenacarboranes: Toward Hybrid Drugs with a Dual Mode of Action” (Chemmedchem, 2019)

Experiments:
[1] = Ester hydrolysis in PBS/DMSO at pH 7.4 (time‐resolved UV‐vis); assay type: physicochemical; conditions: PBS/DMSO (1 vol%), 20 μM
Description: Following our recent investigations on the self‐assembly behavior of ruthenacarborane complexes in aqueous solutions at physiologic pH,9, 10 the behavior of free acid 3 and ester 4 in aqueous solution was studied via UV‐vis spectroscopy and Nanoparticle Tracking Analysis (NTA) in phosphate‐buffered saline (PBS)/DMSO mixtures (pH 7.4). UV‐vis spectroscopy is a useful tool to follow the ester hydrolysis over time, when a UV‐(vis)‐active chromophore is present (in the case of 4, the quinoline ring). Experiments were carried out at room temperature (23 and 25 °C, for UV‐vis and NTA, respectively), to simulate the conditions of the working solutions used for cell cultures, and at 37 °C (UV‐vis), to simulate the conditions of incubation of cells.
UV‐vis spectroscopy. Stock solutions of 3, 4 and 8‐hydroxyquinoline (8‐HQ) in distilled DMSO were freshly prepared before use ([3]=2.11 mM; [4]=6.56 mM; [8‐HQ]=25.76 mM). An aliquot of the DMSO stock solution of 3, 4 or 8‐HQ was added to 3 mL PBS solution, so that the final concentration was 20 μM. DMSO content was adjusted to 1 vol % (considering the amount of DMSO from the stock solutions) before addition of the ruthenacarborane, in all samples. Time‐resolved UV‐vis spectra of 4 were measured, over a period of 26 h at room temperature (23±1 °C) and at 37±0.3 °C to follow hydrolysis of the ester bond of 4 at physiologic pH (7.4). PBS/DMSO solutions of 3 and 8‐HQ were also measured, as references. All measurements were corrected by subtracting the blank (PBS+1 vol % DMSO). Experiments were run in duplicate.

[2] = test system: A375, B16 and MCF‐7 cell lines; experiment: CV cell viability assay, summary for A375, B16 and MCF‐7; assay type: cell-based; conditions: range over the three cell lines, 72 h
Description: Thus, care must be taken when comparing their biological activities with those of our previous studies, even with the same cell line, because the covalent vs. non‐covalent combination of drugs might imply different mechanisms of action in the cell.44 Here, we studied the in vitro activity of ruthenacarborane 3, i. e. free acid, and its 8‐hydroxyquinolyl (4) and 4‐{(7‐chloroquinolin‐4‐yl)oxy}butanol‐1‐yl (5) esters, against a panel of cancer cell lines (B16 mouse melanoma, A375 human skin melanoma, MCF‐7 human breast adenocarcinoma, LN229 human glioblastoma, U251 human glioma). Human fibroblast cell line MRC‐5, murine microglial cell line BV‐2 as well as peritoneal exudate cells (Mph), were chosen as models for non‐malignant cells. […] Cells were exposed to 3–5 for 72 h, after which cell viability was determined via 3‐(4,5‐dimethylthiazol‐2‐yl)‐2,5‐diphenyltetrazolium bromide (MTT) and crystal violet (CV) assays, in parallel (Table 2). […]
Colorimetric assays for cellular viability. […] The absorbance was measured with an automated microplate reader at λmax 540 nm, with the reference λmax 670 nm. Untreated cells or cells treated only with BSA (control) were also measured, as reference for BSA‐free and BSA‐containing drug formulations, respectively. […] Cell viability is expressed as percentage (%) relative to control (untreated cultures).58 Experiments were run in three independent replicates. […]

[3] = test system: MCF‐7 cells; experiment: CV viability of MCF‐7 exposed to 3 together with autophagy inhibitors; assay type: cell-based, human; conditions: MCF‐7, 3 together with CQ or 3‐MA (0.5 mM), 72 h, CV assay
Protocol: Colorimetric assays for cellular viability. […] Cells were then washed with tap water, dried in air, and the CV dye was dissolved in 33 % (w/v) acetic acid solution. […] The dye was then discarded, and the formed formazan (purple) was dissolved in DMSO. The absorbance was measured with an automated microplate reader at λmax 540 nm, with the reference λmax 670 nm. Untreated cells or cells treated only with BSA (control) were also measured, as reference for BSA‐free and BSA‐containing drug formulations, respectively. […] Cell viability is expressed as percentage (%) relative to control (untreated cultures).58 Experiments were run in three independent replicates. […] Non‐linear regression analyses of the obtained results was done using GraphPad Prism software to calculate IC50 values. page 17: Figure S15. […] MA, 0.5 mM) for 72 h, from CV assay. Data are expressed as indicated above for Figure S11. * indicates statistically significant (p < 0.05) values, with respect to the control, # with respect to cells treated with 3. S16 (1 picture or pasted object on this page, not shown here)

Substance | time after which hydrolysis is pronounced ([1]; pH 7.4, 23 °C) | time to complete hydrolysis of the ester bond ([1]; pH 7.4, 23 °C) | time to complete hydrolysis of the ester bond ([1]; pH 7.4, 37 °C) | IC50 [2] | cell viability on co‐treatment with an inhibitor of autophagy [3]
closo ‐[3‐(η^6‐p‐Cymene)‐1‐(quinolin‐8‐yl‐acetate)‐3,1,2‐RuC2B9H10] [Compound 4] | 5 h | 23 h | 2.5 h |  | 
closo‐ [Compound 3, closo‐ [3‐(η^6‐p‐Cymene)‐1‐(CH2COOH)‐3,1,2‐RuC2B9H10]] |  |  |  | 18 to 23 µM | restoration of cellular viability
